Our source for the IC50, remaining binding and Kd values is paper PMC4620497 (Scientific Reports, 2015).

One test has as its target CDK2 (Homo sapiens, UniProt P24941). More on the design: method as in earlier work. The note with it: Table S1; cited from earlier work.
For a further test, the target named is T1, DMPK (Homo sapiens, UniProt Q09013).
T1 construct: purchased DiscoveRx KINOMEscan (Ambit Biosciences)
T1 sequence (Q09013 1-629): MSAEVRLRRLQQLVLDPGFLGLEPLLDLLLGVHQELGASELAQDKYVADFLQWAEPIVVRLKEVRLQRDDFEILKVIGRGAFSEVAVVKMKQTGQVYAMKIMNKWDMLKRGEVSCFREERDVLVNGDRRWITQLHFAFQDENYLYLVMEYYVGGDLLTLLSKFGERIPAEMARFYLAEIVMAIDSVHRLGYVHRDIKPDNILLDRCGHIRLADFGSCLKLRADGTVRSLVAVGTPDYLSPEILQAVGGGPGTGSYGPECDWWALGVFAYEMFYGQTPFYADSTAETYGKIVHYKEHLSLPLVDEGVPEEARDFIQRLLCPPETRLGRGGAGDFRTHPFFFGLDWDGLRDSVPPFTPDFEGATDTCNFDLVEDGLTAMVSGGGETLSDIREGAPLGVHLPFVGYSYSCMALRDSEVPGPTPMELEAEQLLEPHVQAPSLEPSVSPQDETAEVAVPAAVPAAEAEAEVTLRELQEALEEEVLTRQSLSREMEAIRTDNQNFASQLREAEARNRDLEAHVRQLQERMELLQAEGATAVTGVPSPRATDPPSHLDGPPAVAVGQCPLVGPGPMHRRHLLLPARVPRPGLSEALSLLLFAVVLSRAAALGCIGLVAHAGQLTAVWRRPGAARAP
More on the design: method as in earlier work. The following applies: Table S1; cited from earlier work.

A further test concerns the target T2, ACVR2B (Homo sapiens, UniProt Q13705).
T2 construct: purchased DiscoveRx KINOMEscan (Ambit Biosciences)
Put plainly: KINOMEscan panel screen. The format is binding. The note with it: read-out: Percent Control(%).

A further test has as its target T3, BUB1 (Homo sapiens, UniProt O43683).
T3 construct: purchased DiscoveRx KINOMEscan (Ambit Biosciences)
Put plainly: KINOMEscan panel screen. The format is binding. The following applies: read-out: Percent Control(%).

A further test addresses T4, CAMKK1 (Homo sapiens, UniProt Q8N5S9).
T4 construct: purchased DiscoveRx KINOMEscan (Ambit Biosciences)
As to the kind of experiment: KINOMEscan panel screen. The format is binding. The following applies: read-out: Percent Control(%).

A further test concerns the target T5, CDC2L2 (Homo sapiens, UniProt Q9UQ88).
T5 construct: purchased DiscoveRx KINOMEscan (Ambit Biosciences)
As to the kind of experiment: KINOMEscan panel screen. The format is binding. The note with it: read-out: Percent Control(%).

The target in another test is T6, CHEK1 (Homo sapiens, UniProt O14757).
T6 construct: purchased DiscoveRx KINOMEscan (Ambit Biosciences)
T6 sequence (O14757 1-476): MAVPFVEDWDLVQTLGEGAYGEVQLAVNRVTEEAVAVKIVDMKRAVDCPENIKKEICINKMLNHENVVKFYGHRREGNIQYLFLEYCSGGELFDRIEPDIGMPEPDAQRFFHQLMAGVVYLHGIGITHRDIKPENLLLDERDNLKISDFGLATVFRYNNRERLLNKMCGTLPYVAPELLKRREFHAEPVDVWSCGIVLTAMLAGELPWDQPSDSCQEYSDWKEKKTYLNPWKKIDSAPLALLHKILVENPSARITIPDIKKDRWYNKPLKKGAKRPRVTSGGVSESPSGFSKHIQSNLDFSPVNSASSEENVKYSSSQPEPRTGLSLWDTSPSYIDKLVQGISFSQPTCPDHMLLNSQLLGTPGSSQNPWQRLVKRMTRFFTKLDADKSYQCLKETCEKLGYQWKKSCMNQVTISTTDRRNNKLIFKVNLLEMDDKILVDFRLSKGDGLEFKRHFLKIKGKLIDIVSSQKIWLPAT
As to the kind of experiment: KINOMEscan panel screen. The format is binding. The following applies: read-out: Percent Control(%).

For the next test, the target named is T7, CLK2 (Homo sapiens, UniProt P49760).
T7 construct: purchased DiscoveRx KINOMEscan (Ambit Biosciences)
Put plainly: KINOMEscan panel screen. The format is binding. The following applies: read-out: Percent Control(%).

The target in a further test is T8, CLK3 (Homo sapiens, UniProt P49761).
T8 construct: purchased DiscoveRx KINOMEscan (Ambit Biosciences)
Put plainly: KINOMEscan panel screen. The following applies: read-out: Percent Control(%). The format is binding.

The target of another test is T9, EGFR(T790M) (Homo sapiens, UniProt P00533, T790M).
T9 construct: purchased DiscoveRx KINOMEscan (Ambit Biosciences)
T9 sequence (P00533 25-1210 T790M): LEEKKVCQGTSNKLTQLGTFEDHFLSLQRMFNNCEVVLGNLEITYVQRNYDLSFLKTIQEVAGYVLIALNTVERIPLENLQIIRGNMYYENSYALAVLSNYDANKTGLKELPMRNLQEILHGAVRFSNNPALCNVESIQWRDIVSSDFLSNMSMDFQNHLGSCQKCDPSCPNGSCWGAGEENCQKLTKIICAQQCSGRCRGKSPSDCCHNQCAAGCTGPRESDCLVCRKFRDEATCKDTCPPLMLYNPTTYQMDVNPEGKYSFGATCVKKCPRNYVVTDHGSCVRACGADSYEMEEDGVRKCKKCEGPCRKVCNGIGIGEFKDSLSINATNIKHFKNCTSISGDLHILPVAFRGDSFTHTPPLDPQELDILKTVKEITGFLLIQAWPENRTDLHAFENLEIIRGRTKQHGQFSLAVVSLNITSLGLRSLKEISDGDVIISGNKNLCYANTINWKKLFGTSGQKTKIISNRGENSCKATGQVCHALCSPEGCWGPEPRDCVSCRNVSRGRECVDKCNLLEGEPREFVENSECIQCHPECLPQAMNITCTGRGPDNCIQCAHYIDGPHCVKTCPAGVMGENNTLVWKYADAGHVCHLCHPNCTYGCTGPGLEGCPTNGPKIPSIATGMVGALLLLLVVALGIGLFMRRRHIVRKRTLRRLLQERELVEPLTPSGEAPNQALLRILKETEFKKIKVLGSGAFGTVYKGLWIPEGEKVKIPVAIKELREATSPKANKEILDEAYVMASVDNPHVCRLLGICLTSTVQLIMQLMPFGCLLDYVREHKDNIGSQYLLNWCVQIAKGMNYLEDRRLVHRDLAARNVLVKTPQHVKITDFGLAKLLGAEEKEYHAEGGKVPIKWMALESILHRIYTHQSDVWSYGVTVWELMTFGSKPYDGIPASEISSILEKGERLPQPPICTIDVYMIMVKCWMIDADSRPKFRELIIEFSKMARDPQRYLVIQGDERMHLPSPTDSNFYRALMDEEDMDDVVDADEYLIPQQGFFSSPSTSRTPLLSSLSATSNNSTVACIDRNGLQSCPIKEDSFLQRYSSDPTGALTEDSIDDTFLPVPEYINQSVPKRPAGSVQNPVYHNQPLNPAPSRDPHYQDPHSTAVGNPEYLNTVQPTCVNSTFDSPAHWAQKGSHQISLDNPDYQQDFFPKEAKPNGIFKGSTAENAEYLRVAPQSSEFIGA
Put plainly: KINOMEscan panel screen. The note with it: read-out: Percent Control(%). The format is binding.

Another test concerns the target T10, EPHA7 (Homo sapiens, UniProt Q15375).
T10 construct: purchased DiscoveRx KINOMEscan (Ambit Biosciences)
As to the kind of experiment: KINOMEscan panel screen. The format is binding. The note with it: read-out: Percent Control(%).

For another test, the target named is T11, ERBB4 (Homo sapiens, UniProt Q15303).
T11 construct: purchased DiscoveRx KINOMEscan (Ambit Biosciences)
As to the kind of experiment: KINOMEscan panel screen. The format is binding. The note with it: read-out: Percent Control(%).

Another test addresses T12, GCN2(Kin.Dom.2,S808G) (Homo sapiens, UniProt Q9P2K8, S808G).
T12 construct: GCN2(Kin.Dom.2,S808G); purchased DiscoveRx KINOMEscan (Ambit Biosciences)
Put plainly: KINOMEscan panel screen. The note with it: read-out: Percent Control(%). The format is binding.

Another test has as its target T13, HASPIN (Homo sapiens, UniProt Q8TF76).
T13 construct: purchased DiscoveRx KINOMEscan (Ambit Biosciences)
As to the kind of experiment: KINOMEscan panel screen. The format is binding. The note with it: read-out: Percent Control(%).

In a further test the target is T14, LIMK1 (Homo sapiens, UniProt P53667).
T14 construct: purchased DiscoveRx KINOMEscan (Ambit Biosciences)
T14 sequence (P53667 whole entry): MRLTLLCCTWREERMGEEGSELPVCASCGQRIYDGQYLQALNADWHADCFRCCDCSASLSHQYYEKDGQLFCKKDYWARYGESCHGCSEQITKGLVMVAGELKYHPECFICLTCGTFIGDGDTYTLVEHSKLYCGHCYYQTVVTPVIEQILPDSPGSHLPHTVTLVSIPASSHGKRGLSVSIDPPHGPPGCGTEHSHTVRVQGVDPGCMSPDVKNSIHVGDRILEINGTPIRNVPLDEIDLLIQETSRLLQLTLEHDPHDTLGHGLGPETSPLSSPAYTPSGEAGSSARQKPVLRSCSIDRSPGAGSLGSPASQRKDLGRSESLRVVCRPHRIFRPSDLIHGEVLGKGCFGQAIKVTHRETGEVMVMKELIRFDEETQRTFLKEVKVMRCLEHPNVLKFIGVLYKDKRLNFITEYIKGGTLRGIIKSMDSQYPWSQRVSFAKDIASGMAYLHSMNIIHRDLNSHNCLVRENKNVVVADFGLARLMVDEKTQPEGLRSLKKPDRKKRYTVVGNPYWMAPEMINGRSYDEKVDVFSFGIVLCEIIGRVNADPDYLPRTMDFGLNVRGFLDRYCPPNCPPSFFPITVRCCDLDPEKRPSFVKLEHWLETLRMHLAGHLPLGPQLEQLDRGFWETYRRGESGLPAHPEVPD
As to the kind of experiment: KINOMEscan panel screen. The format is binding. The note with it: read-out: Percent Control(%).

A further test deals with T15, MELK (Homo sapiens, UniProt Q14680).
T15 construct: purchased DiscoveRx KINOMEscan (Ambit Biosciences)
T15 sequence (Q14680 whole entry): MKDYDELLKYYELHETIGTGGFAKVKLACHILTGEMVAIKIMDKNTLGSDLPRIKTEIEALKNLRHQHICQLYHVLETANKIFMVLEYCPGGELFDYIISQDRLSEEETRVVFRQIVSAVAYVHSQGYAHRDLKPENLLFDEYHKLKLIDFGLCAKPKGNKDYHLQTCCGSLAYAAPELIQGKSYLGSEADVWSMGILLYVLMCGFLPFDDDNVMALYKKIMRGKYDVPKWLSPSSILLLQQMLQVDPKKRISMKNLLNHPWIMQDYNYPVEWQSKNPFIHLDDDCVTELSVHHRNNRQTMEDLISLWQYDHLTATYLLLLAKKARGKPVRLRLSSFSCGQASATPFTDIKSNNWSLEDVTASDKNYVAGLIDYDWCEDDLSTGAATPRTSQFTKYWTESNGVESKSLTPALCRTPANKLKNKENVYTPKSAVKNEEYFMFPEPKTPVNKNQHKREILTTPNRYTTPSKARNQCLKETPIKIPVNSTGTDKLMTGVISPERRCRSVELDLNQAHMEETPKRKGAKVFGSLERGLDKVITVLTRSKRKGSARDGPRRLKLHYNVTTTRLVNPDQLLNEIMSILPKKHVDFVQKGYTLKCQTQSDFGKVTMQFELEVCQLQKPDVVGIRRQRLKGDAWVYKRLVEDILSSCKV
Put plainly: KINOMEscan panel screen. The format is binding. The note with it: read-out: Percent Control(%).

The next test deals with T16, MERTK (Homo sapiens, UniProt Q12866).
T16 construct: purchased DiscoveRx KINOMEscan (Ambit Biosciences)
As to the kind of experiment: KINOMEscan panel screen. The format is binding. The following applies: read-out: Percent Control(%).

Another test addresses T17, MET(M1250T) (Homo sapiens, UniProt P08581, M1250T).
T17 construct: purchased DiscoveRx KINOMEscan (Ambit Biosciences)
Put plainly: KINOMEscan panel screen. The following applies: read-out: Percent Control(%). The format is binding.

In the next test the target is T18, MST2 (Homo sapiens, UniProt Q13188).
T18 construct: purchased DiscoveRx KINOMEscan (Ambit Biosciences)
As to the kind of experiment: KINOMEscan panel screen. The format is binding. The following applies: read-out: Percent Control(%).

A further test addresses T19, PDGFRB (Homo sapiens, UniProt P09619).
T19 construct: purchased DiscoveRx KINOMEscan (Ambit Biosciences)
Put plainly: KINOMEscan panel screen. The format is binding. The note with it: read-out: Percent Control(%).

Another test concerns the target T20, PRKD2 (Homo sapiens, UniProt Q9BZL6).
T20 construct: purchased DiscoveRx KINOMEscan (Ambit Biosciences)
As to the kind of experiment: KINOMEscan panel screen. The format is binding. The note with it: read-out: Percent Control(%).

Another test has as its target T21, RIPK5 (Homo sapiens, UniProt Q6XUX3).
T21 construct: purchased DiscoveRx KINOMEscan (Ambit Biosciences)
As to the kind of experiment: KINOMEscan panel screen. The format is binding. The note with it: read-out: Percent Control(%).

The next test concerns the target T22, ROS1 (Homo sapiens, UniProt P08922).
T22 construct: purchased DiscoveRx KINOMEscan (Ambit Biosciences)
As to the kind of experiment: KINOMEscan panel screen. The format is binding. The note with it: read-out: Percent Control(%).

In the next test the target is T23, SIK (Homo sapiens, UniProt P57059).
T23 construct: purchased DiscoveRx KINOMEscan (Ambit Biosciences)
As to the kind of experiment: KINOMEscan panel screen. The format is binding. The following applies: read-out: Percent Control(%).

The target in the next test is T24, TGFBR1 (Homo sapiens, UniProt P36897).
T24 construct: DNA tag (qPCR read-out); purchased Ambit Biosciences (KINOMEscan service)
Put plainly: KINOMEscan panel screen. The format is binding. The note with it: read-out: Percent Control(%).

In a further test the target is BTK (Homo sapiens, UniProt Q06187). As to the kind of experiment: KINOMEscan kinase binding assay (Kd).
For the next test, the system named is PANC-1. Put plainly: MTT cell viability assay. The note with it: Homo sapiens, PANC-1, 72 h.
The next test concerns C32. Put plainly: MTT cell viability assay. The note with it: Homo sapiens, C32, 72 h.

T5 sequence (Q9UQ88 whole entry): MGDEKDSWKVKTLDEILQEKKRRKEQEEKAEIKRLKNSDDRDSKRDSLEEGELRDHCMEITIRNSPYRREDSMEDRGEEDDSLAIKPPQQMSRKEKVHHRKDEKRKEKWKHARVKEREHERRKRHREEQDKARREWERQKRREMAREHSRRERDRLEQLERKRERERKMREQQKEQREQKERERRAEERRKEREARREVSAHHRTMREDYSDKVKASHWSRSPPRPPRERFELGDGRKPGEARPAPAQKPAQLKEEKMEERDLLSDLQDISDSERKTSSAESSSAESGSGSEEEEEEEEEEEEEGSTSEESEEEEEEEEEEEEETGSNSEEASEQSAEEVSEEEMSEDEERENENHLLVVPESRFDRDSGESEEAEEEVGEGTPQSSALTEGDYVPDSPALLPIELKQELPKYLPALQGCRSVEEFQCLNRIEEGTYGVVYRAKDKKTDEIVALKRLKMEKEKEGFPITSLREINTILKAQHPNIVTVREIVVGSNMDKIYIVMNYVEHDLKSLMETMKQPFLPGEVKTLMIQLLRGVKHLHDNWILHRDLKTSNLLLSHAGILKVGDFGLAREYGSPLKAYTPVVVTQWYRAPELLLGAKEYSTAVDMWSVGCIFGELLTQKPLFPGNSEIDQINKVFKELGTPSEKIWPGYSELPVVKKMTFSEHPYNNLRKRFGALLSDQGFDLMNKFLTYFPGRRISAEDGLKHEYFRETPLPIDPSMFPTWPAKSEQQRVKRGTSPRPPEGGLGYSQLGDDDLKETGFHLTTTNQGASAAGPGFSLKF
T21 sequence (Q6XUX3 whole entry): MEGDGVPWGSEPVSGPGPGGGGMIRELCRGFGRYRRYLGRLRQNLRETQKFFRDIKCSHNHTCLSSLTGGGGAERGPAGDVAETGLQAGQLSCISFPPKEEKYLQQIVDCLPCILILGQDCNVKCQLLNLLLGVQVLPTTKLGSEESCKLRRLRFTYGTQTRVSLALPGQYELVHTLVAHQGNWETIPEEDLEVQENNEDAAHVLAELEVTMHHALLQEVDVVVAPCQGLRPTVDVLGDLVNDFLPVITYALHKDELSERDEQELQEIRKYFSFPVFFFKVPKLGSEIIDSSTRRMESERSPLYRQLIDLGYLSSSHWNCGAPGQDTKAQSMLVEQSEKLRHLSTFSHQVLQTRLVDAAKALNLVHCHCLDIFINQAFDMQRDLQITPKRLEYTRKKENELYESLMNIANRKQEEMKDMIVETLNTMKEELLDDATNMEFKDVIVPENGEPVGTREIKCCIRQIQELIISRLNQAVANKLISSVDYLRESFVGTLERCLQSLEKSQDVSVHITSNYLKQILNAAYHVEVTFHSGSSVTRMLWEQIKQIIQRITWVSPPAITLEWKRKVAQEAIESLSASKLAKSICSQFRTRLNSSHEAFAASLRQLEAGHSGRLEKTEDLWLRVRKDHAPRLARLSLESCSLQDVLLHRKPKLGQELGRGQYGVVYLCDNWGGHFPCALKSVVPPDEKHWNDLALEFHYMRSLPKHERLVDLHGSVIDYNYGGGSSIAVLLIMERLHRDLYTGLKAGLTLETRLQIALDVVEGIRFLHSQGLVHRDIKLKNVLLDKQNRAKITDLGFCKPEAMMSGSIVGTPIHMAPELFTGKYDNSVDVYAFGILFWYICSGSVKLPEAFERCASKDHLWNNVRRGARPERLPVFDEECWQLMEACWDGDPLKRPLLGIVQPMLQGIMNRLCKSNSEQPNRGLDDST
T2 sequence (Q13705 19-512): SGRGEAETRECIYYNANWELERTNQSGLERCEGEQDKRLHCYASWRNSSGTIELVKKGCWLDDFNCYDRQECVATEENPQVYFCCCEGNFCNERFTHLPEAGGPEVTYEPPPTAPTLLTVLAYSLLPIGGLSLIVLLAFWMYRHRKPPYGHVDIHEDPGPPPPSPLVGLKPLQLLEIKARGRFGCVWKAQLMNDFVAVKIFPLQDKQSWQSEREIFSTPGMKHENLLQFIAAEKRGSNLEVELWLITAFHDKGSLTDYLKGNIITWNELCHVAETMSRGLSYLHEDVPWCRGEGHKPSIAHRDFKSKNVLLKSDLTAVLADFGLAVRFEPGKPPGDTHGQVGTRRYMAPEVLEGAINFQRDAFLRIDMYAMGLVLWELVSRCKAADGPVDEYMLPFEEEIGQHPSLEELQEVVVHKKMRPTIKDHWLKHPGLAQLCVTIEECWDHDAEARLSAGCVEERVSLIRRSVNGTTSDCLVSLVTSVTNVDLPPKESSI

With `O=C(Nc1ccc(Oc2ncnc3[nH]ncc23)cc1)Nc1ccc(Cl)c(C(F)(F)F)c1` [Compound 1, 1-(4-(1H-pyrazolo[3,4-d]pyrimidin-4-yloxy)phenyl)-3-(4-chloro-3-(trifluoromethyl)phenyl)urea], the half-maximal inhibitory concentration (IC50) on CDK2 and at DMPK was > 10 µM in each case.

In the case of `CC(C)(C)c1cc(NC(=O)Nc2ccc(Oc3ncnc4[nH]ncc34)c(F)c2)no1` [SKLB-677, 1-(4-(1H-pyrazolo[3,4-d]pyrimidin-4-yloxy)-3-fluorophenyl)-3-(5-tert-butylisoxazol-3-yl)urea], the remaining binding at 10 µM at ACVR2B stood at 81%; at BUB1, 66%; at CAMKK1, 4.4%; at CDC2L2, 53%; at CHEK1, 100%; on CLK2, 6.4%. Also, the remaining binding at 10 µM at CLK3 came out at 52%; at EGFR(T790M), 74%; on EPHA7 it was 0%; at ERBB4, 81%; at GCN2(Kin.Dom.2,S808G) it was 20%; on HASPIN it was 42%. Also, the remaining binding at 10 µM on LIMK1 came out at 25%; at MELK, 56%; on MERTK, 0%; on MET(M1250T), 2.2%; at MST2, 87%; at PDGFRB, 0%. The remaining binding at 10 µM on PRKD2 is 28%; on RIPK5, 98%; at ROS1 it was 0.1%; at SIK, 97%; on TGFBR1, 100%. For the same compound, the Kd at BTK was > 10 µM. Moreover, the IC50 in the test with PANC-1 and with C32 was > 10 µM each time.
